# How the values were obtained:
# [1] = system: HUVEC cells; experiment: Inhibition of VEGF-induced HUVEC cell proliferation, CellTiter Glo; type: cell-based; conditions: Homo sapiens, 20 ng/ml VEGF, 72 hours
# Source text: In this experiment, human umbilical vein endothelial cells (HUVEC, Lonza) were used. HUVEC cells are primary cells isolated from umbilical veins. This cell line is a model system to study the functions of endothelial cells. Endothelial cell proliferation in response to VEGF is crucial to the pathological angiogenesis associated with conditions such as tumor development and ocular neovascular diseases.
# In this assay, a luciferase bioluminescence assay (CellTiter GLU™, Promega) is used to determine the inhibitory activity of the compounds against VEGF-induced HUVEC cell proliferation and viability. CellTiter GLO™ is a homogeneous method for quantifying the count of viable cells in culture based on ATP, an indicator of metabolically active cells. In this assay, the compound was incubated with HUVEC cells for 72 hours, and then the inhibitory activity of the resulting compound against VEGF-induced HUVEC cell proliferation was measured on the En Vision plate reader.
# With the RPMI-1640 medium (plus 5% FBS, 1% Penicillin-Streptomycin) used for the HUVEC cell proliferation experiment, add a cell suspension to a 96-well plate at 100 μl per well, i.e., 4000 HUVEC cells/well, and incubate them overnight in a 5% CO2 incubator at 37° C. (serum starvation). After 24 hours, add 96 μl of the experimental medium to the cell wells, and then add 2 μl of the compound to the cell wells; and after 1 hour following the addition of the compound, add 2 μl of 2 μg/ml VEGF to the cell wells. Add 0.1% DMSO and 20 ng/ml VEGF to cell wells to serve as high-reading control wells. Take cell-free wells with only medium as low-reading control wells. […] After 72 hours of incubation of the cell plate in the incubator, hold the cell plate to be tested at room temperature and discard 100 μl of medium per well. Add 100 μl of CTG reagent (CellTiter Glo kit) per well, oscillate the cell plate in a fast oscillator for 3 minutes, and keep the cell plate at room temperature in the dark for 30 minutes. Read the chemiluminescence signal value with the Envision instrument.
# X indicates the log value of compound concentration, Y indicates the inhibition rate (% inhibition), Top indicates the readout of the high-reading control well.
# [2] = molecular target: VEGFR2 (Homo sapiens, UniProt P35968); experiment: Kinase inhibition, Mobility Shift Assay/IMAP, VEGFR2; type: biochemical; set-up: purchased Carna 08-191
# Sequence of VEGFR2 (P35968 790-1356 limits assumed): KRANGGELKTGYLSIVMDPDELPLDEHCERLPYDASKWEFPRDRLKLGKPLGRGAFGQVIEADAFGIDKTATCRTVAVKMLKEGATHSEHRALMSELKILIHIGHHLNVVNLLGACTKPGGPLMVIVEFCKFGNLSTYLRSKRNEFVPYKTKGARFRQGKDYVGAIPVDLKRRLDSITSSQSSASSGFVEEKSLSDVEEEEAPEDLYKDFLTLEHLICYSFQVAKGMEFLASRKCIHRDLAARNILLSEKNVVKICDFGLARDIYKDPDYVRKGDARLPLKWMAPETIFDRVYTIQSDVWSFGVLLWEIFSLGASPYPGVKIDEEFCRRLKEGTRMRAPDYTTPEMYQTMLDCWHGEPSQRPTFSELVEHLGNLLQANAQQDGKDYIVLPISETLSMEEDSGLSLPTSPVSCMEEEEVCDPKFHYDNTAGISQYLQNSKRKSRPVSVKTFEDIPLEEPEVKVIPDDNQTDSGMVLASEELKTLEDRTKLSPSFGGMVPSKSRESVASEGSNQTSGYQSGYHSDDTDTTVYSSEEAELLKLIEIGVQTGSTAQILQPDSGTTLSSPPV
# Summary of the method: (§1)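 Substrate conversion (phosphorylated vs non-phosphorylated) read by mobility shift on Caliper EZ Reader II and converted to % inhibition relative to no-enzyme and DMSO controls. IC50 fitted from % inhibition versus log compound concentration.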
# [3] = molecular target: T1, VEGFR3 (Homo sapiens, UniProt P35916); experiment: Kinase inhibition, Mobility Shift Assay/IMAP, VEGFR3; type: biochemical
# T1 construct: purchased Invitrogen PV4129
# T1 sequence (P35916 25-1363): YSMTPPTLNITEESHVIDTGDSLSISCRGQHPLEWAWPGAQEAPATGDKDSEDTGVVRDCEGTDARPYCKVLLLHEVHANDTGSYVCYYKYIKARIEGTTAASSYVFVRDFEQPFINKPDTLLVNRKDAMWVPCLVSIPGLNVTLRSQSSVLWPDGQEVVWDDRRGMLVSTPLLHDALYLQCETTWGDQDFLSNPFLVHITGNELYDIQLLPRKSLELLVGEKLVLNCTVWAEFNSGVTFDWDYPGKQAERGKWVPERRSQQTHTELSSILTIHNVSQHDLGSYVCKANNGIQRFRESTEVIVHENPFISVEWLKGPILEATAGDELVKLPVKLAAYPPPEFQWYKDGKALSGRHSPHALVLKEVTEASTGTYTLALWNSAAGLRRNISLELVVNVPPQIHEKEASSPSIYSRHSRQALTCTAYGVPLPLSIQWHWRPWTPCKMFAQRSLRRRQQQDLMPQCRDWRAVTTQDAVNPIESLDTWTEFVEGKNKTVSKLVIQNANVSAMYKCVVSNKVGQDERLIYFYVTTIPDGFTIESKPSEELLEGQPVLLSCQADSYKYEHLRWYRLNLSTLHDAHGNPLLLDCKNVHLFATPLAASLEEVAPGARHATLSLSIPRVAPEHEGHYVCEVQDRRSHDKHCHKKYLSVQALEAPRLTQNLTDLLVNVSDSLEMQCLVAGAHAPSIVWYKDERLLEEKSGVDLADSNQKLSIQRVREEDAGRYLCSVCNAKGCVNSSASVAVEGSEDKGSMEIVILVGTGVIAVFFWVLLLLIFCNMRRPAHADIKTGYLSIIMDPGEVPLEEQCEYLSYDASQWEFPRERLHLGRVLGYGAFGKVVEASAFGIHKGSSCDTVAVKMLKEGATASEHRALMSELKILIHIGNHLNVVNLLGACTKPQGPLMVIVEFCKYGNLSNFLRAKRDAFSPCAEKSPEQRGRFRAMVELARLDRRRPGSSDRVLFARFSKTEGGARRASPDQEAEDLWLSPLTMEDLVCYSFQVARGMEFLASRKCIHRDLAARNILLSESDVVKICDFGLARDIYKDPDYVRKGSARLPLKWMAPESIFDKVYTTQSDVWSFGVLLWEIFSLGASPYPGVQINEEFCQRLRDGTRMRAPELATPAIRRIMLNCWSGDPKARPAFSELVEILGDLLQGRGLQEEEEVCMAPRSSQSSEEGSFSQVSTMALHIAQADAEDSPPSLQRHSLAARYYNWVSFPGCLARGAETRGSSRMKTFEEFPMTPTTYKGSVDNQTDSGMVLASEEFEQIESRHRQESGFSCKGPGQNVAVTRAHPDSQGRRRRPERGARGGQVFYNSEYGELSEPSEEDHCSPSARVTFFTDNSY
# Source text: (§2) This assay directly monitored the ability of compounds to inhibit kinase phosphorylation by measuring non-phosphorylated and phosphorylated substrates in kinase reactions by using Mobility Shift Assays/IMAP™ analysis.
# (§3) Read the conversion ratio data on CaliperEZ Reader II. Convert conversion rates into inhibition ratio data.
# (§4) “Min” indicates the readout of the control well without the addition of enzymes; and “Max” indicates the readout of the control well with the addition of DMSO Fit IC50 values with XL Fit excel add-in version […].
# (§5) X indicates the log value of compound concentration, and Y indicates the inhibition ratio (% inhibition).
# [4] = system: melanin; experiment: Binding capacity of compounds to melanin; type: in vitro ADME, cuttlefish (Sepia officinalis); conditions: cuttlefish (Sepia officinalis), melanin suspension (1 mg/mL); 1 mg/mL melanin in PBS pH 7.4, 2 μM compound, 2 h at 37° C.; read-out: Fu % (percentage of free drug)
# Summary of the method: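 Compound (2 μM final) incubated with washed Sepia melanin (1 mg/mL, PBS pH 7.4) 2 h at 37° C with shaking; PBS with 0.1% BSA served as blank. Supernatants quantified by LC-MS/MS; bound fraction Fb derived from melanin versus blank concentration.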
# [5] = molecular target: T2, TIE2 (Homo sapiens, UniProt Q02763); experiment: Kinase inhibition, Mobility Shift Assay/IMAP, TIE2; type: biochemical
# T2 construct: purchased BPS 40270
# T2 sequence (Q02763 23-1124): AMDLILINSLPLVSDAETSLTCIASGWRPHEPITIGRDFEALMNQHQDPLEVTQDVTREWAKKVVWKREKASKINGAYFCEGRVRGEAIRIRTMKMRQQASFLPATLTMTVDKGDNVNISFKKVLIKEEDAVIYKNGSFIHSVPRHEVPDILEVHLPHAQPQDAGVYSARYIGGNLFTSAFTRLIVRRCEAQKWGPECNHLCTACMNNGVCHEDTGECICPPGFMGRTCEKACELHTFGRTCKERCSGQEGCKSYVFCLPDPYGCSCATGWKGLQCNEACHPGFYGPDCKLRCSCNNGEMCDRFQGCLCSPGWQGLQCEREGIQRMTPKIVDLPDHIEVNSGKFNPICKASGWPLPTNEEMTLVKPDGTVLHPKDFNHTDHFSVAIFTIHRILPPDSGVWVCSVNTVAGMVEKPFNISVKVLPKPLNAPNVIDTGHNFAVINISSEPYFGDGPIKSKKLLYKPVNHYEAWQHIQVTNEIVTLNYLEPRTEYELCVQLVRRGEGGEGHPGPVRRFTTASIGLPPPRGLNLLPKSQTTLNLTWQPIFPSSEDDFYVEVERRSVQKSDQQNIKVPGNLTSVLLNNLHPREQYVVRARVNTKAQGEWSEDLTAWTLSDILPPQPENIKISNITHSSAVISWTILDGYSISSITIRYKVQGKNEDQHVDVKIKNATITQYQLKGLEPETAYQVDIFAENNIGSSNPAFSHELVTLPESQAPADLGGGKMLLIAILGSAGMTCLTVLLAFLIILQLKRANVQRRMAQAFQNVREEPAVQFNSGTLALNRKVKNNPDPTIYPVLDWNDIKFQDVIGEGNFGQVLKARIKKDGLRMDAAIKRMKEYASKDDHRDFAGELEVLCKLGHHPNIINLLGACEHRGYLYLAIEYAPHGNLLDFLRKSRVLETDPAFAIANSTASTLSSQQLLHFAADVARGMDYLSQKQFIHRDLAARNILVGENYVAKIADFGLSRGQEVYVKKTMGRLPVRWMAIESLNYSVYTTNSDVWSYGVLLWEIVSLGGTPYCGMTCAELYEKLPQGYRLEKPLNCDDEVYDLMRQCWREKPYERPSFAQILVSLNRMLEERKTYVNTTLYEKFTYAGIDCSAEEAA
# Summary of the method: as §1
# [6] = molecular target: T3, VEGFR1 (Homo sapiens, UniProt P17948); experiment: Kinase inhibition, Mobility Shift Assay/IMAP, VEGFR1; type: biochemical
# T3 construct: purchased Invitrogen PR6731B
# T3 sequence (P17948 27-1338): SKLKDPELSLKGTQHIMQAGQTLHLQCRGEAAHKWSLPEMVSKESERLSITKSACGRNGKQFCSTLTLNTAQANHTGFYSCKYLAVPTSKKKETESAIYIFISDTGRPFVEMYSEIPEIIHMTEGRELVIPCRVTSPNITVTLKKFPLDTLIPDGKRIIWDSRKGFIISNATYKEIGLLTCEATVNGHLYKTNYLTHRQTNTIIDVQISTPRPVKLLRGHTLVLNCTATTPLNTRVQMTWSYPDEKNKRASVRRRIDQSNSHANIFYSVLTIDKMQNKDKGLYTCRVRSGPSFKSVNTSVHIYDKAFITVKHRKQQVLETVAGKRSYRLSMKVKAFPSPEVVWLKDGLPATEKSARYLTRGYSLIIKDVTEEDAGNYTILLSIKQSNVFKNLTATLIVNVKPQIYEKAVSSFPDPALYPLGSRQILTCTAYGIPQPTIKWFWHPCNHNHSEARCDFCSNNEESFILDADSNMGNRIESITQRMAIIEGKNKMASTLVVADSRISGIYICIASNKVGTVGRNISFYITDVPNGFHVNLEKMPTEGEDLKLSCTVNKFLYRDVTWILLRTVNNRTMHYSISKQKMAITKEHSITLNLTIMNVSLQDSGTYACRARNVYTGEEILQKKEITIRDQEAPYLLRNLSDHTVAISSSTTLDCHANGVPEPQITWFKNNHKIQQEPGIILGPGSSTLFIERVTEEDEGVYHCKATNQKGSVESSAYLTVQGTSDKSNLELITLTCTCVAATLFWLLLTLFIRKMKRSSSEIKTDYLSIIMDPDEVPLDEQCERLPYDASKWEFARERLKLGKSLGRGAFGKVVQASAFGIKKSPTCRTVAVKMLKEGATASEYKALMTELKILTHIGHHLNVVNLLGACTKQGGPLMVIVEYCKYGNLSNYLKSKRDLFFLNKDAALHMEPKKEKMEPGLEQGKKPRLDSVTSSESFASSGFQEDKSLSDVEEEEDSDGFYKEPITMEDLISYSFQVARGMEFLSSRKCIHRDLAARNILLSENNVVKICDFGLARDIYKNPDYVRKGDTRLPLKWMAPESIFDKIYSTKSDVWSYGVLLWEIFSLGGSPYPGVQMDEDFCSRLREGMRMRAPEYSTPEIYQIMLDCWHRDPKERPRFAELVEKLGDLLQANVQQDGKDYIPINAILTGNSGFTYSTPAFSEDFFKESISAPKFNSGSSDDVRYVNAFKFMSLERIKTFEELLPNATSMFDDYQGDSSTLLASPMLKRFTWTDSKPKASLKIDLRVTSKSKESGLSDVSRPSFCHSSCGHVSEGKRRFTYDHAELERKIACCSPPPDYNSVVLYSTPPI
# Source text: as §2, §3, §4, §5
# [7] = molecular target: T4, EGFR (Homo sapiens, UniProt P00533); experiment: Kinase inhibition, Mobility Shift Assay/IMAP, EGFR; type: biochemical
# T4 construct: purchased Carna 08-115
# T4 sequence (P00533 669-1210 limits assumed): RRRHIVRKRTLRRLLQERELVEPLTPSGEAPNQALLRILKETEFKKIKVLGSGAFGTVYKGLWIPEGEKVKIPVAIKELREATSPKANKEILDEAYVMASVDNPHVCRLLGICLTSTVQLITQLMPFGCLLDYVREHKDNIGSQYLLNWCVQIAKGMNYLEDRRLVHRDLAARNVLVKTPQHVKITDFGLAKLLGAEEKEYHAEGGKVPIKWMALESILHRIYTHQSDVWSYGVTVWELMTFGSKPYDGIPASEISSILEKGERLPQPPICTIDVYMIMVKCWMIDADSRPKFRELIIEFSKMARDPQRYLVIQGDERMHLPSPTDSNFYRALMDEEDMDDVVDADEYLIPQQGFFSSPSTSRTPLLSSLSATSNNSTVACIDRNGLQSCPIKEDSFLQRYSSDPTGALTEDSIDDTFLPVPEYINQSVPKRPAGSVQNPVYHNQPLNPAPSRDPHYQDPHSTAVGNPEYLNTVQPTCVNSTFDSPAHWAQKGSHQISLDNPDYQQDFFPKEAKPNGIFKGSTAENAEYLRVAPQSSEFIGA
# Summary of the method: as §1
# [8] = Solubility test in buffer, LC-MS; type: physicochemical; conditions: aqueous buffer, thermodynamic from solid, room temperature, shaking 8 h, pH not given (method: pH 2.0, 6.5, 7.4)
# Procedure: Accurately weigh 3 portions of about 2 mg of the compound, and add appropriate volumes of buffers with the pHs of 2.0, 6.5, and 7.4 respectively to obtain a solution with a concentration of 2 mg/mL. After sonication for 10 min, fix them on a shaker and shaking for 8 h at room temperature. After shaking, sonicate for 10 min and centrifuge for 15 min at 13,000 rpm. Pipette 0.1 mL of supernatant into a new tube, shake and rinse it with 5 mL, and discard the liquid. Transfer 0.5 mL of the supernatant again to a new tube, centrifuge it for 15 min at 13,000 rpm, then collect the supernatant (if necessary, dilute with water) and analyze it by LC-MS. The sample concentrations at 3~5 points are subjected to fitting and reticle for quantification.
SMILES,IC50 [2] [nM],IC50 [3] [nM],"fraction unbound at 2 h, 2 μM [4]",IC50 [5] [nM],IC50 [6] [nM],IC50 [7] [µM],solubility at 8 h [8] [µg/mL],IC50 [1] [nM]
"CN1CCC(CCNC(=O)Nc2snc(OCc3ccc4c(c3)OCC4)c2C(N)=O)CC1 [Compound T053, 3-((2,3-dihydrobenzofuran-6-yl)methoxy)-5-(3-(2-(1-methylpiperidin-4-yl)ethyl)ureido)isothiazole-4-carboxamide]",10.4,17.4,0.0225,258,14.7,11.4,–,69.7
"CNC(=O)c1cccc(COc2nsc(NC(=O)NCCC3CCN(C)CC3)c2C(N)=O)c1 [Compound T055, 3-((3-(methylcarbamoyl)benzyl)oxy)-5-(3-(2-(1-methylpiperidin-4-yl)ethyl)ureido)isothiazole-4-carboxamide]",15.7,39.3,–,3360,7.7,49.7,144,–
"NC(=O)c1c(OCc2cccc(C(=O)NC3CC3)c2)nsc1NC(=O)NCCCCN1CCCC1 [Compound T056, 3-((3-(cyclopropylcarbamoyl)benzyl)oxy)-5-(3-(4-(pyrrolidin-1-yl)butyl)ureido)isothiazole-4-carboxamide]",4.69,13.2,0.0183,–,3.33,50.6,2000,–
"CN1CCN(CCNC(=O)Nc2snc(OCc3cccc(C(=O)NC4CC4)c3)c2C(N)=O)CC1 [Compound T065, 3-((3-(cyclopropylcarbamoyl)benzyl)oxy)-5-(3-(2-(4-methylpiperazin-1-yl)ethyl)ureido)isothiazole-4-carboxamide]",9.95,24.1,–,5430,6.55,≥ 60,782,–
"CN1CCN(CCCNC(=O)Nc2snc(OCc3cccc(C(=O)NC4CC4)c3)c2C(N)=O)CC1 [Compound T069, 3-((3-(cyclopropylcarbamoyl)benzyl)oxy)-5-(3-(3-(4-methylpiperazin-1-yl)propyl)ureido)isothiazole-4-carboxamide]",2.77,14.6,–,3510,5.48,> 60,633,–
"CNC(=O)c1cc(COc2nsc(NC(=O)NCCCCN3CCCC3)c2C(N)=O)ccc1F [Compound T070, 3-((4-fluoro-3-(methylcarbamoyl)benzyl)oxy)-5-(3-(4-(pyrrolidin-1-yl)butyl)ureido)isothiazole-4-carboxamide]",12,50.1,–,7800,9.14,> 60,927,–
CN1CCC(CCNC(=O)Nc2snc(OCc3cc4c(cc3F)CCO4)c2C(N)=O)CC1 [Compound T073],2.73,10.7,–,–,5.99,4.55,–,26.9
"NC(=O)c1c(OCc2cc3c(cc2F)CCO3)nsc1NC(=O)NCCC1CCN(CCF)CC1 [Compound T103, 3-[(5-fluoro-2,3-dihydrobenzofuran-6-yl)methoxy]-5-[2-[1-(2-fluoroethyl)-4-piperidyl]ethylcarbamoylamino]isothiazole-4-carboxamide]",4.96,–,0.0229,94.5,–,5.49,–,66

# Now from value to compound, other results behind:
IC50 [2] [nM],IC50 [3] [nM],"fraction unbound at 2 h, 2 μM [4]",IC50 [5] [nM],IC50 [6] [nM],IC50 [7] [µM],solubility at 8 h [8] [µg/mL],SMILES,IC50 [1] [nM]
3.55,13,0.025,–,7.73,13.9,–,"NC(=O)c1c(OCc2cc3c(cc2F)CCO3)nsc1NC(=O)NCCCCN1CC[C@H](O)C1 [Compound T090, 3-[(5-fluoro-2,3-dihydrobenzofuran-6-yl)methoxy]-5-[4-[(3S)-3-hydroxypyrrolidin-1-yl]butylcarbamoylamino]isothiazole-4-carboxamide]",46.9
15.1,–,0.0449,223,–,19.8,–,"COc1ccc(F)c(COc2nsc(NC(=O)NCCCCN3CC[C@@H](F)C3)c2C(N)=O)c1F [Compound T111, 3-[(2,6-difluoro-3-methoxy-phenyl)methoxy]-5-[4-[(3R)-3-fluoropyrrolidin-1-yl]butylcarbamoylamino]isothiazole-4-carboxamide]",32
14.6,–,0.0222,129,–,10.2,–,"COc1ccc(F)c(COc2nsc(NC(=O)NCCC3CCN(CCF)CC3)c2C(N)=O)c1F [Compound T112, 3-[(2,6-difluoro-3-methoxy-phenyl)methoxy]-5-[2-[1-(2-fluoroethyl)-4-piperidyl]ethylcarbamoylamino]isothiazole-4-carboxamide]",36
14.7,–,0.0268,163,–,11.8,–,"COc1ccc(F)c(COc2nsc(NC(=O)NCCCCN3CC[C@H](F)C3)c2C(N)=O)c1F [Compound T113, 3-[(2,6-difluoro-3-methoxy-phenyl)methoxy]-5-[4-[(3S)-3-fluoropyrrolidin-1-yl]butylcarbamoylamino]isothiazole-4-carboxamide]",27
7.2,–,0.0148,117,–,8.22,–,"NC(=O)c1c(OCc2cc3c(cc2F)CCO3)nsc1NC(=O)NCCCCN1CC[C@H](F)C1 [Compound T115, 3-[(5-fluoro-2,3-dihydrobenzofuran-6-yl)methoxy]-5-[4-[(3S)-3-fluoropyrrolidin-1-yl]butylcarbamoylamino]isothiazole-4-carboxamide]",36
–,–,0.0202,205,–,19.9,–,"NC(=O)c1c(OCc2cc3c(cc2F)CCO3)nsc1NC(=O)NCCCN1CC[C@H](F)C1 [Compound T119, 3-[(5-fluoro-2,3-dihydrobenzofuran-6-yl)methoxy]-5-[3-[(3S)-3-fluoropyrrolidin-1-yl]propylcarbamoylamino]isothiazole-4-carboxamide]",67
3.53,12.8,–,–,2.25,24,815,"NC(=O)c1c(OCc2ccc(F)c(C(=O)NC3CC3)c2)nsc1NC(=O)NCCCN1CC[C@H](F)C1 [Compound T152, 3-[[3-(cyclopropylcarbamoyl)-4-fluoro-phenyl]methoxy]-5-[3-[(3S)-3-fluoropyrrolidin-1-yl]propylcarbamoylamino]isothiazole-4-carboxamide]",–

# Reference: patent publication US20260217698A1 (BEYANG THERAPEUTICS CO., LTD., priority 2022, published 2026)
